Values quoted from earlier work in patent publication US6685965B1, “PROCESS FOR STABILIZING LEVOGYRE ASCORBIC ACID (LAA), A STABLE AQUEOUS LAA COMPOSITION, A PROCESS FOR PREPARING A STABLE TOPICAL SOLUTION, AN EMULSION, A VITAMIN PRODUCT, AND A METHOD FOR COSMETIC, PHARMACEUTICAL OR NUTRITIONAL TREATMENT” (Industria E Comercio de Cosmeticos Natura LTDA., priority 1997, dated 2004).

Assays:
[1] = system: glucosaminoglycines, components of the extracellular matrix of the dermis; conditions: in the presence of LAA
human fibroblasts = human fibroblasts in vitro, in the presence of LAA

O=C1OC(C(O)CO)C(O)=C1O (stereo not shown) [LAA, levogyre ascorbic acid]
increase in deposition of glucosaminoglycines in the extracellular matrix [1]: 50%
increase in synthesis of glucosaminoglycines [1]: 30 to 90%
efficiency of mRNA in the translation of the polypeptidic chains of collagen (human fibroblasts): about 2 times
increase in the synthesis of mRNA (collagens of type I and type III) (human fibroblasts): 2 to 3 times
